Paper PMC9913425, “Pentacyclic Triterpenoids-Based Ionic Compounds: Synthesis, Study of Structure–Antitumor Activity Relationship, Effects on Mitochondria and Activation of Signaling Pathways of Proliferation, Genome Reparation and Early Apoptosis” (Cancers, 2023)
Counter-ions that a name gives are not always drawn. Blank lines part the entries; values can stand above or below the compound they belong to.

Tests used:
HEK293 = assay: In vitro cytotoxicity, IC50 by flow cytometry (Guava ViaCount); type: cell-based; conditions: conditionally normal
Experimental: (§1) Human cancer cell line HeLa, HL60, A2780 was obtained from the HPA Culture Collections (Salisbury, UK). Cells (Jurkat, K562, U937, Hek293, Fibroblasts) were purchased from Russian Cell Culture Collection (Institute of Cytology of the Russian Academy of Sciences, […], Russia) and cultured according to standard protocols and sterile technique. […] Cells were maintained in RPMI 1640 (Jurkat, K562, U937, HL60) (Gibco, Billings, MT, USA) supplemented with […], 10% FBS (Sigma) and 100 units/mL penicillin–streptomycin (Sigma). All types of cells were grown in an atmosphere of 5% CO2 at 37 °C. The cells were subcultured at 2–3 days intervals. Cells were then seeded in 24-well plates at 5 × 10^4 cells per well and incubated overnight. Jurkat, K562, U937, HL60 cells were subcultured at 2-day intervals with a seeding density of 1 × 10^5 cells per 24-well plates in RPMI with 10% FBS.
(§2) The antitumor activity of the synthesized ionic compounds was initially assessed in vitro on Jurkat, K562, U937, HL60, HEK293, A2780 cell lines, including the determination of IC50 by flow cytometry involving Guava ViaCount (Millipore) reagent kits.

Jurkat = assay: as above; type: cell-based; conditions: Jurkat cells
Experimental: as §1, §2

K562 = assay: as above; type: cell-based
Experimental: as §1, §2

U937 = assay: as above; type: cell-based
Experimental: as §1, §2

A2780 = assay: as above; type: cell-based, human
Experimental: as §1, §2

HL60 = assay: as above; type: cell-based, human
Experimental: as §1, §2

Jurkat cells [1] = assay: Apoptosis/necrosis induction (Annexin V Alexa Fluor488, 7AAD staining); type: cell-based; conditions: compound at IC50 concentration, incubation 2 h
From the text: Multiparametric evaluation of marker molecules, along with the detection of damage to the mitochondrial membrane, makes it possible to clearly determine the type of cell death. The method of cell staining with three different dyes (Annexin V Alexa Fluor488, 7AAD and MitoSense Red) provides simultaneous specification of various aspects of the state of the cell membrane, the state of DNA and the viability of mitochondria; together, it is a reliable sign of intrinsic and mitochondrial apoptosis pathway. Normal cells with intact mitochondrial membranes have high MitoSense Red fluorescence, while cells with decoupled oxidation and phosphorylation have much lower fluorescence. […]
Figure 1 The ratio of the level of mito-damage and the level of apoptosis in Jurkat cells of ionic compounds based on ursolic, oleanolic and betulinic acids.

[2] = test system: mitochondria of Jurkat tumor cells; assay: Mitochondrial damage (MitoSense Red staining); type: cell-based; conditions: compound at IC50 concentration, incubation 2 h
Jurkat cells [3] = assay: Cell cycle analysis (Guava Cell Cycle Reagent); type: cell-based; conditions: IC50 concentration, 24 h, flow histogram
Experimental: Our findings are consistent with the literature data that many ICs predominantly affect the G2 and S phases, reducing them.
The incubation time of ionic liquids with cells was 24 h. […] It is listed because the picture prints the label with values. / The fit parameters printed in each histogram (RMS, Mean G1, Mean G2, G2/G1, CV G1, CV G2) were left out as statistics of the cell-cycle model.

ATR kinase = assay: Luminex xMAP DNA Damage/Genotoxicity panel, ATR kinase content; type: cell-based; conditions: Jurkat cells; 12a 0.006 µM, 13d 0.004 µM per 100,000 cells; 6 and 12 h
Chk1 = assay: Luminex xMAP DNA Damage/Genotoxicity panel, phosphorylated Chk1; type: cell-based; conditions: Jurkat cells; 12a 0.006 µM, 13d 0.004 µM per 100,000 cells; 6 and 12 h
From the text: [Worded in the source for another target; used here, by the source, with some conditions changed.] (§3) The determination of proteins in a cell by Luminex xMAP technology is characterized by the presence of multiplex multiparametric analysis with the simultaneous use of a multiplex of antibodies with a fluorescent label and magnetic particles, thereby resulting in an increase in the sensitivity of the technique and expansion of the dynamic range, as well as an increase in detection accuracy. Luminex XMAP technology provides a simultaneous analysis of a sufficient number of different proteins in various types of biological fluids (plasma, serum, cerebrospinal fluid, follicular fluid, tissue lysate, etc.) and in cell supernatants. Consequently, multiplexing saves time/costs and ensures the same conditions for the measurements, which is essential for significance and statistical processing.
(§4) Magnetic microspheres (stained inside with two fluorescent dyes) in combination with monoclonal antibodies against the analyzed analytes (the main intracellular kinases in this case) are incubated with the samples and standards; then, the samples/standards are incubated with biotinylated monoclonal antibodies against the analyzed analytes and, finally, with a solution of streptavidin–phycoerythrin. The Luminex technology identifies the different proteins present in each well and converts the mean fluorescence intensity (MFI) of each measured cytokine to pg/mL using software and standard curves. This approach is successfully applied in fundamental and clinical research. In this work, we analyzed various protein analytes that make up the phosphorylated and non-phosphorylated fractions of the main kinases in the signaling pathways: CREB, JNK, NFkB, p38, ERK1/2, Akt, p70S6K, STAT3, STAT5 proteins in six samples of lysates of Jurkat tumor cells by Luminex technology (MILLIPLEX® MAP 9-Plex Multi-Pathway 9-plex Magnetic Bead Kit).

Chk2 = assay: Luminex xMAP DNA Damage/Genotoxicity panel, phosphorylated Chk2; type: cell-based; conditions: Jurkat cells; 12a 0.006 µM, 13d 0.004 µM per 100,000 cells; 6 and 12 h
From the text: [Worded in the source for another target; used here, by the source, with some conditions changed.] as §3, §4

γH2AX = assay: Luminex xMAP DNA Damage/Genotoxicity panel, phosphorylated γH2AX; type: cell-based; conditions: Jurkat cells; first six hours of incubation
From the text: as §3, with “processing. Simultaneous measurement of cytokines by bead multiplex analysis has certain similarities with ELISA, in particular the use of antibodies, but has a fundamental difference in using magnetic fluorescent beads coupled to antikinase monoclonal antibodies.” for “processing.”
as §4
Phosphorylation of histone H2AX at serine 139 (γH2AX) is an early stage in the cellular response to DNA damage, when the damage brings about formation of a double-strand break (DSB). γH2AX foci, considered as markers of DNA double-strand breaks, are easily detected by immunofluorescence microscopy and flow cytometry. The two main signaling pathways ATM/Chk2 and ATR/Chk1 respond to DNA damage and both lead to H2AX phosphorylation, but the ATR/Chk1 pathway causes γH2AX formation to a much lesser extent. The role of γH2AX in DNA repair is also discussed.
Incubation time with the test compounds was 6 and 12 h. p < 0.001 (***).

[4] = Homo sapiens, HEK293, HEK293 cells
[5] = Homo sapiens, U-937, U937 cells
[6] = Homo sapiens, A2780, A2780 cells
[7] = Homo sapiens, HL-60, HL60 cells

melting point: 151 to 153 °C
Structure (SMILES): CC(=O)O[C@H]1CC[C@@]2(C)C(CC[C@]3(C)C2CC=C2C4CC(C)(C)CC[C@]4(C(=O)OCCCCCCn4cc[n+](C)c4)CC[C@]23C)C1(C)C (stereo partly drawn) (as salt: bromide) [9d, 1-(6-{[(3β)-3-Acetyloxyolean-12-en-28-oyl]oxy}hexyl)-3-methylimidazolium bromide]

Structure (SMILES): C[n+]1ccn(CCCCCCOC(=O)[C@]23CCC(C)(C)CC2C2=CCC4[C@@]5(C)CC[C@H](O)C(C)(C)C5CC[C@@]4(C)[C@]2(C)CC3)c1.O=C([O-])c1ccccc1O (stereo partly drawn) [13f, 1-(6-{[(3β)-3-Hydroxyolean-12-en-28-oyl]oxy}hexyl)-3-methylimidazolium Salicylate]
IC50 (HEK293; HEK293 cells): 37 ± 3 nM | IC50 (Jurkat): 8 ± 1 nM | IC50 (K562; K562 cells): 13 ± 1 nM | IC50 (U937; U937 cells): 11 ± 1 nM | IC50 (A2780; A2780 cells): 18 ± 2 nM | IC50 (HL60; HL60 cells): 3 ± 1 nM | Apoptosis (%) Early (Jurkat cells [1]): 0.17% | Apoptosis (%) Late (Jurkat cells [1]): 35.95% | Apoptosis (%) Necrosis (Jurkat cells [1]): 11.07% | Mito-Damage (%) [2]: 49.43% | Freq Sub-G1 (hypodiploid cell population) (Jurkat cells [3]): 9.83%

Structure (SMILES): N.N.[Cl][Pt][Cl] [cisplatin, reference compound]
Freq Sub-G1 (hypodiploid cell population) (Jurkat cells [3]): 32.27%

melting point: 134 to 136 °C
Structure (SMILES): CC(=O)O[C@H]1CC[C@@]2(C)C(CC[C@]3(C)C2CC=C2C4CC(C)(C)CC[C@]4(C(=O)OCCCCCCOC(=O)c4nccn4C)CC[C@]23C)C1(C)C (stereo partly drawn) [compound 3, 6-{[(1-Methyl-1H-imidazol-2-yl)carbonyl]oxy}hexyl (3β)-3-(acetyloxy)olean-12-en-28-oate]
IC50 (HEK293; [4]): > 4000 nM | IC50 (Jurkat; Homo sapiens, Jurkat): > 4000 nM | IC50 (K562; Homo sapiens, K562, K562 cells): > 4000 nM | IC50 (U937; [5]): > 4000 nM | IC50 (A2780; [6]): > 4000 nM | IC50 (HL60; [7]): > 4000 nM

melting point: 123 to 125 °C
Structure (SMILES): CC(=O)O[C@H]1CC[C@@]2(C)C(CC[C@]3(C)C2CC=C2C4CC(C)(C)CC[C@]4(C(=O)OCCCCCCOC(=O)c4cncn4C)CC[C@]23C)C1(C)C (stereo partly drawn) [compound 4, 6-{[(1-Methyl-1H-imidazol-5-yl)carbonyl]oxy}hexyl (3β)-3-(acetyloxy)olean-12-en-28-oate]
IC50 (HEK293; [4]): > 4000 nM | IC50 (Jurkat; Homo sapiens, Jurkat): > 4000 nM | IC50 (K562; Homo sapiens, K562, K562 cells): > 4000 nM | IC50 (U937; [5]): > 4000 nM | IC50 (A2780; [6]): > 4000 nM | IC50 (HL60; [7]): > 4000 nM

Structure (SMILES): CO[C@H]1C[C@@H]2CC[C@@H](C)[C@@](O)(O2)C(=O)C(=O)N2CCCC[C@H]2C(=O)O[C@H]([C@H](C)C[C@@H]2CC[C@@H](O)[C@H](OC)C2)CC(=O)[C@H](C)/C=C(\C)[C@@H](O)[C@@H](OC)C(=O)[C@H](C)C[C@H](C)/C=C/C=C/C=C/1C [rapamycin, reference compound]
level of ATR kinase (ATR kinase): elevated levels | content of phosphorylated checkpoint kinase Chk1 (Chk1): significantly decreases | content of phosphorylated checkpoint kinase Chk2 (Chk2): significantly decreases | increase in the phosphorylated γH2AX histone fraction (γH2AX): ~9000 times

Structure (SMILES): CN[C@@H]1C[C@H]2O[C@@](C)([C@@H]1OC)n1c3ccccc3c3c4c(c5c6ccccc6n2c5c31)C(=O)NC4 [staurosporine]
content of phosphorylated checkpoint kinase Chk1 (Chk1): significantly decreases | content of phosphorylated checkpoint kinase Chk2 (Chk2): significantly decreases | increase in the phosphorylated γH2AX histone fraction (γH2AX): ~9000 times

Structure (SMILES): CC(C)[C@@H]1NC(=O)[C@H](C)OC(=O)[C@@H](C(C)C)NC(=O)[C@@H](C(C)C)OC(=O)[C@H](C(C)C)NC(=O)[C@H](C)OC(=O)[C@@H](C(C)C)NC(=O)[C@@H](C(C)C)OC(=O)[C@H](C(C)C)NC(=O)[C@H](C)OC(=O)[C@@H](C(C)C)NC(=O)[C@@H](C(C)C)OC1=O [valinomycin]
level of ATR kinase (ATR kinase): elevated levels | content of phosphorylated checkpoint kinase Chk1 (Chk1): significantly decreases | content of phosphorylated checkpoint kinase Chk2 (Chk2): significantly decreases
